Reference: publication PMC5666006, “Combating virulence of Gram-negative bacilli by OmpA inhibition” (Scientific Reports, 2017)
Where a SMILES comes first, the peptide text is derived from it. [ ]: non-standard residue; d: D form.

What was measured:
A. baumannii ATCC 17978 [1] = assay: Fibronectin-binding assay; format: cell-based; details: A. baumannii ATCC 17978, 0.25 or 0.5 mg/mL, 2 h
Procedure: (§1) Fibronectin-binding assay was performed as described previously. Briefly, A. baumannii ATCC 17978, P. aeruginosa PaO1, and E. coli ATCC 25922 grown overnight at 37 °C in LB were resuspended in PBS and collected by centrifugation at 5,000 × g for 10 min. […] Then, 50 µL of bacterial suspension were mixed with 50 µL of PBS, added to fibronectin coated wells and incubated 2 h at room temperature for bacterial adsorption. Non-adhered bacteria were discarded and wells were washed six times with sterile PBS to remove unbound bacteria. Adherent bacteria were then collected with 125 µL of sterile PBS containing 0.5% Triton X-100. Diluted lysates were plated onto sheep blood agar and incubated at 37 °C for 24 h for enumeration of developed colonies and then the determination of the number of bacteria that attached to fibronectin.

P. aeruginosa PaO1 [2] = assay: Fibronectin-binding assay; format: cell-based; details: P. aeruginosa PaO1, 0.25 or 0.5 mg/mL, 2 h
Procedure: as §1

E. coli ATCC 25922 [3] = assay: Fibronectin-binding assay; format: cell-based; details: E. coli ATCC 25922, 0.25 or 0.5 mg/mL, 2 h
Procedure: as §1

A. baumannii ATCC 17978 [4] = assay: Adhesion of bacteria to A549 cells; format: cell-based; details: 2 h
Procedure: Subsequently, infected A549 cells were washed five times with pre-warmed PBS and lysed with 0.5% Triton X-100. Diluted lysates were plated onto blood agar (Blood-Agar Columbia, Becton Dickinson Microbiology Systems, USA) and incubated at 37 °C for 24 h for enumeration of developed colonies and then the determination of the number of bacteria that attached to A549 cells.
Figure S3. OmpA inhibitor hexapeptides reduce A. baumannii adherence to A549 cells. A549 cells were infected with 10^8 CFU/mL of ATCC 17978 strain during 2 h in presence of AOA-1, […]
of bacterial adherence was calculated as follow: [(number of colonies of treated A549 cells with peptide / number of colonies of non-treated cells) x 100]. Representative results of three independent experiments are shown; data are means ± SEM. *P<0.05: between untreated and […]

A. baumannii ATCC 17978 [5] = assay: Murine peritoneal sepsis model; format: in vivo, mouse
Procedure: (§2) Murine peritoneal sepsis models with A. baumannii ATCC 17978, P. aeruginosa PaO1 or E. coli ATCC 25922 strains were established by i.p. inoculation of the bacteria. Briefly, mice were inoculated with 0.5 mL of the bacterial suspensions, which were incubated for 20–24 h in LB at 37 °C and mixed in a 1:1 ration with a saline solution containing 10% (w/v) porcine mucin (Sigma, Spain).
(§3) The murine peritoneal sepsis models by A. baumannii ATCC 17978, P. aeruginosa PaO1 or E. coli ATCC 25922 strains were established by i.p. inoculation of the bacteria. Briefly, animals were infected i.p. with 0.5 mL of the MLD100 of A. baumannii ATCC 17978, P. aeruginosa PaO1, or E. coli ATCC 25922 strains mixed 1:1 with 10% porcine mucin. […] Fifthy-six mice were randomly ascribed to the following groups: 1). controls (without treatment), and 2). […] Mortality was recorded over 72 h. After death or sacrifice of the mice at the end of the experimental period, aseptic thoracotomies were performed, and blood samples were obtained by cardiac puncture for qualitative blood cultures. The spleen and lungs were aseptically removed and homogenized (Stomacher 80; Tekmar Co., USA) in 2 mL of sterile NaCl 0.9% solution. Ten-fold dilutions of the homogenized spleen and lungs were plated onto Sheep blood agar for quantitative cultures (log CFU/g of spleen or lungs).

P. aeruginosa PaO1 [6] = assay: Murine peritoneal sepsis model; format: in vivo, mouse
Procedure: as §2, §3

E. coli ATCC 25922 [7] = assay: Murine peritoneal sepsis model; format: in vivo, mouse
Procedure: as §2, §3

P. aeruginosa PaO1 [8] = assay: Bacterial cytotoxicity on A549 cells, MTT assay; format: cell-based; details: P. aeruginosa PaO1 pretreated with 0.25 or 0.5 mg/mL, 24 h
Procedure: Bacterial cytotoxicity. […] Prior the evaluation of bacterial cytotoxicity, we firstly removed viable bacteria from A549 cells cultures and washed A549 cells five times with pre-warmed PBS. Then, cellular viability was assessed as indicated above.

[9] = A. baumannii ATCC 17978, 10 mg/kg/d i.p., 72 h
[10] = A. baumannii ATCC 17978 MLD i.p., 10 mg/kg AOA-2 i.p. 2 h after challenge
[11] = P. aeruginosa PaO1, 10 mg/kg/d i.p., 72 h
[12] = P. aeruginosa PaO1 MLD i.p., 10 mg/kg AOA-2 i.p. 2 h after challenge
[13] = E. coli ATCC 25922, 10 mg/kg/d i.p., 72 h
[14] = E. coli ATCC 25922 MLD i.p., 10 mg/kg AOA-2 i.p. 2 h after challenge

## N=C(N)NCCC[C@@H]1NC(=O)[C@H]2CCCN2C(=O)[C@H](Cc2c[nH]c3ccccc23)NC(=O)[C@H](CCCNC(=N)N)NC(=O)[C@H]2CCCN2C(=O)[C@H](Cc2c[nH]c3ccccc23)NC1=O [AOA-2] (cyclo(RW[dP]RW[dP]))
A. baumannii ATCC 17978 [1]
  bacterial adherence to fibronectin (in words): significant decrease in the bacterial adherence to fibronectin
P. aeruginosa PaO1 [2]
  bacterial adherence to fibronectin (in words): significant decrease in the bacterial adherence to fibronectin
E. coli ATCC 25922 [3]
  bacterial adherence to fibronectin (in words): significant decrease in the bacterial adherence to fibronectin
A. baumannii ATCC 17978 [4]; 0.25 mg/mL, 10^8 CFU/mL
  reduction in the adherence of A. baumannii to A549 cells: more than 60%
A. baumannii ATCC 17978 [4]; 0.25, 0.5, 1 mg/mL
  ability to reduce A. baumannii adherence to A549 cells, rank among synthesized peptides (in words): greatest ability to reduce the A. baumannii adherence to A549 cells
A. baumannii ATCC 17978 [5]; [9]
  mouse mortality (in words): decreased
  positive blood cultures (in words): decreased
A. baumannii ATCC 17978 [5]; [10]
  reduced the bacterial load in the lungs: 4.34 log CFU/g
  reduced the bacterial load in the spleen: 4.54 log CFU/g
P. aeruginosa PaO1 [6]; [11]
  mouse mortality (in words): decreased
  positive blood cultures (in words): decreased
P. aeruginosa PaO1 [6]; [12]
  reduced the bacterial load in the lungs: 4.29 log CFU/g
  reduced the bacterial load in the spleen: 4.04 log CFU/g
E. coli ATCC 25922 [7]; [13]
  mouse mortality (in words): decreased
  positive blood cultures (in words): decreased
E. coli ATCC 25922 [7]; [14]
  reduced the bacterial load in the lungs: 3.47 log CFU/g
  reduced the bacterial load in the spleen: 3.36 log CFU/g
P. aeruginosa PaO1 [8]
  A549 cell death induced by bacteria (in words): prevented cell death
